Experimental data as given in patent US20200390767A1, “Formulations of 4-(7-Hydroxy-2-isopropyl-4-oxo-4H-quinazolin-3-yl)-benzonitrile” (NOVARTIS AG, priority 2019, published 2020).
Where two headings read alike, the source gives them in different places.

How the values were obtained:
[1] = PRK clinical study, plasma pharmacokinetics of compound I (LC-MS/MS); format: in vivo, human
Procedure: Pharmacokinetic (PK) samples were collected at the time points defined in the visit schedule supra, with PK blood collection windows shown in Table 27.
All blood samples (3 mL) were taken from the arm by either direct venipuncture or an indwelling catheter inserted in a forearm vein. After each tube of blood was drawn, it was immediately inverted gently 8-10 times to ensure the mixing of tube contents with anticoagulant (3 mL K2 EDTA). Prolonged sample contact with the rubber stopper was avoided and the tubes were placed upright in a test tube rack surrounded by wet ice until centrifugation.
Within 30 minutes, the sample was centrifuged at about 5° C. for 10 minutes at approximately 2000 G (or the sample was placed on ice and centrifuged at room temperature). Immediately after centrifugation, the whole supernatant (approx. 1.5 mL) was transferred in the first 1.8 mL NUNC 2D barcoded cryovial. After mixing the plasma thoroughly, half of the plasma was transferred from the first cryovial to the second cryovial and the caps were secured. Appropriate PK cryolabels were attached to each cryovial and the labels were secured with clear tape. The cryovials were frozen immediately over dry ice then, kept frozen at ≤−20° C. until shipment to the central lab. The vials were shipped in biweekly batches.
Compound I was quantified in plasma using a validated LC-MS/MS method; the lower limit of quantification (LLOQ) was 0.05 ng/mL. Concentrations were expressed in ng per mL units. When feasible, bandage contact lenses (BCL) exposed to study drug were collected and analyzed for residual drug exposure after treatment (LLOQ: 5.00 ng/mL in 0.55 mL of extraction fluid, or 2.75 ng/BCL). Concentrations below the LLOQ were reported as “zero” and missing data were labeled as such.
The following PK parameters were determined as relevant using the actual recorded sampling times and non-compartmental method with Phoenix™ WinNonlin® (Version 6.4): Cmax, Tmax, AUClast (calculated), Clast and Tlast from the plasma concentration-time data. Pre-dose concentrations were determined by inspection at nominal 0, 24 and 72 hours. The linear trapezoidal rule was used for AUClast calculation. No PK parameters were calculated from the bandage contact lenses compound I concentration data.

[2] = test system: postoperative ocular pain in patients undergoing photorefractive keratectomy (PRK) surgery; assay: PRK clinical study, VAS pain severity; format: in vivo, human
Procedure: The study was a proof of concept, double-masked, randomized, vehicle-controlled study of compound I administered as eye drops in addition to standard of care treatment in patients after PRK surgery. PRK surgery was performed as an outpatient procedure under topical anesthesia with removal of the corneal epithelium to expose the stroma for the laser ablation. Compound I dosing was as single eye drop of 2.5% (0.925 mg/drop), administered four times daily (every six hours) in one eye from immediate post-op (time 0) to last dose at 72 hours.
The study consisted of 2 treatment periods using a crossover design. Patients underwent PRK surgery on 2 separate occasions (periods), one eye at a time. Patients were randomized to receive either compound 1 or vehicle following procedure 1 and the alternate following procedure 2.
Patient subjective experience of pain was recorded using VAS, a numeric assessment of pain between 0 and 100, with 0 representing no pain, and 100 representing worst imaginable pain. […] Since it was important clinically to both decrease the maximum pain as well as the overall pain that the patient experiences during the immediate postoperative period, the two periods of 6 hours and up to 12 hours postoperatively, were evaluated as primary endpoints. All evaluable VAS data was collected using an ePRO, which was an electronic device (cell phone with software application), on which patients marked their pain levels at the appropriate time points.
Rescue oral analgesics: It is not ethical to refuse pain control medication to patients postoperatively as part of a clinical trial. […] Because the use of oral rescue medication may be a potential confounder of the pain VAS evaluation, three approaches were used when analyzing pain VAS scores to account for the influence of pain meds (assuming 4 hours of rescue medication effect): (1) any recorded VAS score within 4 hours after use of rescue medication was considered missing; (2) all the recorded VAS scores was used; and (3) any recorded VAS scores within 4 hours after rescue medication use was imputed by the record taken prior to the rescue medication.
The mean VAS pain severity scores at 6 hours and 0-12 hours post-operatively are presented in Table 22 and Table 23, respectively, and shown in FIG. 3. The primary analysis was performed using the Primary PD analysis set.

temperature sensitivity = assay: First in human study, hand immersion test at 49° C.; format: in vivo; settings: water at 49° C., MAD part
Procedure: Safety assessments: Safety assessments consisted of collecting all adverse events (AEs), serious adverse events (SAEs), including systemic and ocular adverse events, along with their severity and relationship to study drug. Systemic safety assessments included regular monitoring of hematology, blood chemistry and urinalysis performed at study center and regular assessments of physical examination, vital signs (systolic and diastolic blood pressure, pulse rate, and body temperature), ECG, pregnancy and assessments of fertility and hand immersion test at 49° C. during MAD part. Ocular safety assessments included early treatment diabetic retinopathy study (ETDRS) visual acuity, intraocular pressure, slit-lamp biomicroscopy, corneal staining and dilated fundus exam.
For the hand immersion test, all subjects in the treatment cohorts withdrew their hand from water at 49° C. at a time interval between 0 to ≤50 secs.

[3] = Day 1, plasma, topical ocular 2.5% compound I
[4] = Day 4, plasma, topical ocular 2.5% compound I
[5] = human, plasma, topical, 2.5 %, 4 days

With `CC(C)c1nc2cc(O)ccc2c(=O)n1-c1ccc(C#N)cc1` [Compound I, 4-(7-hydroxy-2-isopropyl-4-oxo-4H-quinazolin-3-yl)-benzonitrile] the “Median Tlast” value [1, 3] was 2.00 h, the “Tlast (range)” value [1, 3] was 1.95 to 2.05 h and the “Median Tlast” value [1, 4] was 2.00 h. The “Tlast (range)” value [1, 4] was 1.77 to 2.10 h, the “Day 1 pre-dose plasma concentrations” value ([1]; LLOQ 0.05 ng/mL) was “below the limit of quantitation” and the Tmax ([1]; human, plasma, topical or ocular, 2.5 %, after either single (first dose) or repeated 4 times daily topical ocular administration, read-out: median plasma Tmax) was about 30 min. It also gave a Tmax ([1]; human, plasma, topical or ocular, 2.5 %, after the first dose (Day 1), unilateral topical ocular 2.5%, read-out: median Tmax, plasma) of 27.5 min, an AUC(0-t) ([1]; human, plasma, topical or ocular, 2.5 %, max, profile day 1, plasma, topical ocular 2.5% compound I, read-out: AUClast) of 1.58 ng·h/mL and a Cmax ([1]; human, plasma, topical or ocular, 2.5 %, max, profile day 1, plasma, topical ocular 2.5% compound I, read-out: Cmax) of 1.05 ng/mL. The Tmax ([1]; human, plasma, topical or ocular, 2.5 %, max, profile day 1, plasma, topical ocular 2.5% compound I, read-out: Tmax) was 120 min, the AUC(0-t) ([1]; human, plasma, topical or ocular, 2.5 %, max, profile day 4, plasma, topical ocular 2.5% compound I, read-out: AUClast) was 14.5 ng·h/mL and the Cmax ([1]; human, plasma, topical or ocular, 2.5 %, max, profile day 4, plasma, topical ocular 2.5% compound I, read-out: Cmax) was 7.56 ng/mL. It also gave a Tmax ([1]; human, plasma, topical or ocular, 2.5 %, max, profile day 4, plasma, topical ocular 2.5% compound I, read-out: Tmax) of 125 min, a Cmax ([1]; human, plasma, topical or ocular, 2.5 %, mean, profile day 1 (first dose), plasma, topical ocular 2.5% compound I, PK analysis set, read-out: Cmax) of 0.454 ng/mL and an AUC(0-t) ([1]; human, plasma, topical or ocular, 2.5 %, mean, profile day 1, plasma, topical ocular 2.5% compound I, read-out: AUClast) of 0.638 ng·h/mL. For the same compound, the Cmax ([1]; human, plasma, topical or ocular, 2.5 %, mean, profile day 4 (13th dose, QID), plasma, topical ocular 2.5% compound I, read-out: Cmax) was 2.4 ng/mL, the AUC(0-t) ([1]; human, plasma, topical or ocular, 2.5 %, mean, profile day 4, plasma, topical ocular 2.5% compound I, read-out: AUClast) was 4.38 ng·h/mL and the AUC(0-t) ([1]; human, plasma, topical or ocular, 2.5 %, median, profile day 1, plasma, topical ocular 2.5% compound I, read-out: AUClast) was 0.569 ng·h/mL. The Cmax ([1]; human, plasma, topical or ocular, 2.5 %, median, profile day 1, plasma, topical ocular 2.5% compound I, read-out: Cmax) was 0.375 ng/mL, the Tmax ([1]; human, plasma, topical or ocular, 2.5 %, median, profile day 1, plasma, topical ocular 2.5% compound I, read-out: Tmax) was 27.5 min and the AUC(0-t) ([1]; human, plasma, topical or ocular, 2.5 %, median, profile day 4, plasma, topical ocular 2.5% compound I, read-out: AUClast) was 3.42 ng·h/mL. The Cmax ([1]; human, plasma, topical or ocular, 2.5 %, median, profile day 4, plasma, topical ocular 2.5% compound I, read-out: Cmax) was 2.07 ng/mL, the Tmax ([1]; human, plasma, topical or ocular, 2.5 %, median, profile day 4, plasma, topical ocular 2.5% compound I, read-out: Tmax) was 28 min and the AUC(0-t) ([1]; human, plasma, topical or ocular, 2.5 %, min, profile day 1, plasma, topical ocular 2.5% compound I, read-out: AUClast) was 0.261 ng·h/mL. The Cmax ([1]; human, plasma, topical or ocular, 2.5 %, min, profile day 1, plasma, topical ocular 2.5% compound I, read-out: Cmax) was 0.195 ng/mL, the Tmax ([1]; human, plasma, topical or ocular, 2.5 %, min, profile day 1, plasma, topical ocular 2.5% compound I, read-out: Tmax) was 10 min and the AUC(0-t) ([1]; human, plasma, topical or ocular, 2.5 %, min, profile day 4, plasma, topical ocular 2.5% compound I, read-out: AUClast) was 1.18 ng·h/mL. It also gave a Cmax ([1]; human, plasma, topical or ocular, 2.5 %, min, profile day 4, plasma, topical ocular 2.5% compound I, read-out: Cmax) of 0.639 ng/mL, a Tmax ([1]; human, plasma, topical or ocular, 2.5 %, min, profile day 4, plasma, topical ocular 2.5% compound I, read-out: Tmax) of 0 min and a Cmax ([1]; human, plasma, topical, 2.5 %, 13th dose on Day 4, read-out: Arithmetic mean plasma Cmax) of 2.4 ng/mL. The AUC(0-t) ([1]; human, plasma, topical, 2.5 %, 13th dose on Day 4, read-out: mean plasma AUClast) was 4.38 ng·h/mL, the “mean AUClast Day 4 versus Day 1” value [1, 5] was 6.9 fold and the “mean Cmax Day 4 versus Day 1” value [1, 5] was 5.3 fold. The Cmax ([1]; human, plasma, topical, 2.5 %, across 4 days of repeated QID dosing, read-out: observed plasma Cmax, range) was 0.195 to 7.56 ng/mL, the AUC(0-t) ([1]; human, plasma, topical, 2.5 %, across 4 days of repeated QID dosing, read-out: plasma AUClast, range) was 0.261 to 14.5 ng·h/mL and the Tmax ([1]; human, plasma, topical, 2.5 %, after the 13th dose (Day 4), read-out: median Tmax, plasma) was 28 min. The Cmax ([1]; human, plasma, topical, 2.5 %, first dose on Day 1, read-out: Arithmetic mean plasma Cmax) was 0.454 ng/mL, the AUC(0-t) ([1]; human, plasma, topical, 2.5 %, first dose on Day 1, read-out: mean plasma AUClast) was 0.638 ng·h/mL and the concentration at 24 hr ([1]; human, plasma, topical, 2.5 %, prior to the 5th dose on Day 2 (24 hr post 1st dose), read-out: Trough mean plasma concentration) was 1.25 ng/mL. For the same compound, the concentration at 72 hr ([1]; human, plasma, topical, 2.5 %, prior to the 13th dose on Day 4 (72 hr post 1st dose), read-out: Trough mean plasma concentration) was 1.99 ng/mL, the “VAS pain severity score, % Diff” value ([2]; 0-12 hours post-operatively) was −22% and the “VAS pain severity score, Diff (compound I-Vehicle)” value ([2]; 0-12 hours post-operatively) was −8.56. For the same compound, the “VAS pain severity score, model estimated mean” value ([2]; 0-12 hours post-operatively, 2.5% four times daily, Primary PD analysis set) was 30.90, the “VAS pain severity versus Vehicle during the first 18 hours after surgery” value ([2]; 6 out of the 7 time points, p-value threshold 0.10) was “statistically significantly lower VAS pain severity scores” and the “VAS pain severity score, % Diff” value ([2]; 6 hours post-operatively) was −25%. The “VAS pain severity score, Diff (compound I-Vehicle)” value ([2]; 6 hours post-operatively) was −11.1, the “VAS pain severity score, model estimated mean (SE)” value ([2]; 6 hours post-operatively, 2.5% four times daily, Primary PD analysis set) was 34.63 (4.05) and the “mean change in VAS score after instillation of eye drop” value (from here on “mean change in VAS score”) ([2]; 6.5 hours versus 6 hours post-operative) was −3.1. The “mean change in VAS score” value ([2]; 18.5 hours versus 18 hours post-operative) was 2.8, the “mean change in VAS score” value ([2]; 24.5 hours versus 24 hours post-operative) was 1.3 and the “hand immersion time versus vehicle” value (temperature sensitivity) was “no meaningful change in immersion time”.
